Where two headings read alike, the source gives them in different places.
What was measured:
[1] = system: Wnt reporter (TCF/LEF1 promoter); assay: HEK STF293 Wnt reporter (TOPFlash) luciferase assay, Steady Glo normalised to Cell Titer; assay type: cell-based, human; details: HEK STF293 cells, Wnt3a-conditioned media, read-out: TOPFlash IC50 category
Experimental: All compounds were tested using the human cell line HEK STF293. This cell line carries a Wnt reporter (TCF/LEF1 promoter), which drives expression of the firefly luciferase protein. The level of Wnt activity is directly correlated with the level of luciferase activity (determined using a simple assay). Compounds that inhibit Wnt signaling by reducing luciferase activity in these two cell lines are further tested biochemically. […] Compounds were further tested in a Viability assay using Wnt-dependent HCT116 cell line. Compounds were prepared as 10 mM stocks for each compound in DMSO. Dilutions were prepared in a 96-well plate in DMSO. The stock dilutions are as follows: 10 mM, 1 mM, 100 μM, 10 μM, 100 nM, and 10 nM. Plates were sealed and stored at −20° C. […] On the first day, Wnt3a-conditioned media (1:1) were added along with diluted compounds (1:100). […] The final concentrations should therefore be 100 μM, 10 μM, 1 μM, 100 nM, 10 nM, and 1 nM. On the second day, the media was removed and 75 μL of Passive Lysis Buffer (Promega) is added to each well. The plate was shaken at 130 rpm for 15 minutes. For the Steady Glo assay, 45 μL of the lysis was removed and added to a white 96-well plate containing 45 μL/well of Steady Glo solution (Promega). For the Cell Titer assay, 25 μL of the lysis was transferred to a white 96-well plate containing 25 μL/well of Cell Titer solution (Promega). Both Steady Glo and Cell Titer assays were read with a luminescence plate reader. When determining EC50, the Steady Glo values were divided by the Cell Titer values to normalize for cell number. All compounds were tested using the human cell line HEK STF293. This cell line carries a Wnt reporter (TCF/LEF1 promoter), which drives expression of the firefly luciferase protein. The level of Wnt activity is directly correlated with the level of luciferase activity (determined using a simple assay). Compounds that inhibit Wnt signaling by reducing luciferase activity in these two cell lines are further tested biochemically. […] Compounds were further tested in a Viability assay using Wnt-dependent HCT116 cell line. Compounds were prepared as 10 mM stocks for each compound in DMSO. Dilutions were prepared in a 96-well plate in DMSO. The stock dilutions are as follows: 10 mM, 1 mM, 100 μM, 10 μM, 100 nM, and 10 nM. Plates were sealed and stored at −20° C. […] On the first day, Wnt3a-conditioned media (1:1) were added along with diluted compounds (1:100). […] The final concentrations should therefore be 100 μM, 10 μM, 1 μM, 100 nM, 10 nM, and 1 nM. On the second day, the media was removed and 75 μL of Passive Lysis Buffer (Promega) is added to each well. The plate was shaken at 130 rpm for 15 minutes. For the Steady Glo assay, 45 μL of the lysis was removed and added to a white 96-well plate containing 45 μL/well of Steady Glo solution (Promega). For the Cell Titer assay, 25 μL of the lysis was transferred to a white 96-well plate containing 25 μL/well of Cell Titer solution (Promega). Both Steady Glo and Cell Titer assays were read with a luminescence plate reader. When determining EC50, the Steady Glo values were divided by the Cell Titer values to normalize for cell number. All compounds were tested using the human cell line HEK STF293. This cell line carries a Wnt reporter (TCF/LEF1 promoter), which drives expression of the firefly luciferase protein. The level of Wnt activity is directly correlated with the level of luciferase activity (determined using a simple assay). Compounds that inhibit Wnt signaling by reducing luciferase activity in these two cell lines are further tested biochemically. […] Compounds were further tested in a Viability assay using Wnt-dependent HCT116 cell line. Compounds were prepared as 10 mM stocks for each compound in DMSO. Dilutions were prepared in a 96-well plate in DMSO. The stock dilutions are as follows: 10 mM, 1 mM, 100 μM, 10 μM, 100 nM, and 10 nM. Plates were sealed and stored at −20° C. […]

[2] = system: Wnt-dependent HCT116 cell line; assay: Viability assay using Wnt-dependent HCT116 cell line (Cell Titer Glo); assay type: cell-based; details: HCT116 cells, read-out: Viability IC50 category
Experimental: All compounds were tested using the human cell line HEK STF293. This cell line carries a Wnt reporter (TCF/LEF1 promoter), which drives expression of the firefly luciferase protein. The level of Wnt activity is directly correlated with the level of luciferase activity (determined using a simple assay). Compounds that inhibit Wnt signaling by reducing luciferase activity in these two cell lines are further tested biochemically. […] Compounds were further tested in a Viability assay using Wnt-dependent HCT116 cell line. HEK293 cells were seeded in a 6-well plate at approximately 8.0×10^5 cells (2 mL per well). On the first day, Wnt3a-conditioned media (1:1) and compounds (1:100) were added to the plated cells. The final concentrations of compounds were 1 μM, 500 nM, and 100 nM. Vehicle (DMSO) and a Wnt3a-conditioned media plus Vehicle samples were also prepared as controls. Lysates were collected (with non-denaturing lysis buffer) after 24 hours incubation, and protein concentrations determined by Bradford Assay. Immunoblotting with an anti-beta-catenin antibody (equivalent amounts of protein/lane for each condition) were subsequently performed to determine beta-catenin levels. HCT116 cells were seeded at 2,500 cells/well in a 96-well dish (Volume: 100 μL/well). On the second day, the 10 mM stock solution of each test compound was thawed at room temperature. Dilutions of the test compound were prepared in DMSO in a V-bottom 96-well plate. The stock compound solution, DMSO-diluted compound solutions, and DMSO were further diluted 500-fold in cell culture media, and 100 μL of the compound- or DMSO-containing cell culture media was added to each well of the cells. […] The final DMSO concentration was 0.1% in all wells. On the fifth day, 150 μL of media was removed from each well. 50 μL/well Cell Titer Glo reagent (Promega) was added to each well. The plate was shaken at 130 rpm for 15 minutes at room temperature, and the cell viability was determined using a luminescence plate reader. All compounds were tested using the human cell line HEK STF293. This cell line carries a Wnt reporter (TCF/LEF1 promoter), which drives expression of the firefly luciferase protein. The level of Wnt activity is directly correlated with the level of luciferase activity (determined using a simple assay). Compounds that inhibit Wnt signaling by reducing luciferase activity in these two cell lines are further tested biochemically. […] Compounds were further tested in a Viability assay using Wnt-dependent HCT116 cell line. HEK293 cells were seeded in a 6-well plate at approximately 8.0×10^5 cells (2 mL per well). On the first day, Wnt3a-conditioned media (1:1) and compounds (1:100) were added to the plated cells. The final concentrations of compounds were 1 μM, 500 nM, and 100 nM. Vehicle (DMSO) and a Wnt3a-conditioned media plus Vehicle samples were also prepared as controls. Lysates were collected (with non-denaturing lysis buffer) after 24 hours incubation, and protein concentrations determined by Bradford Assay. Immunoblotting with an anti-beta-catenin antibody (equivalent amounts of protein/lane for each condition) were subsequently performed to determine beta-catenin levels. HCT116 cells were seeded at 2,500 cells/well in a 96-well dish (Volume: 100 μL/well). On the second day, the 10 mM stock solution of each test compound was thawed at room temperature. Dilutions of the test compound were prepared in DMSO in a V-bottom 96-well plate. The stock compound solution, DMSO-diluted compound solutions, and DMSO were further diluted 500-fold in cell culture media, and 100 μL of the compound- or DMSO-containing cell culture media was added to each well of the cells. […] The final DMSO concentration was 0.1% in all wells. On the fifth day, 150 μL of media was removed from each well. 50 μL/well Cell Titer Glo reagent (Promega) was added to each well. The plate was shaken at 130 rpm for 15 minutes at room temperature, and the cell viability was determined using a luminescence plate reader. […]

[3] = Homo sapiens, STF/293, Examples for Formulae (VIII), (IX), and (X)
[4] = Homo sapiens, HCT-116, Examples for Formulae (VIII), (IX), and (X)
[5] = Examples for Formulae (IV), (V), (VI), and (VII)
[6] = Homo sapiens, STF/293, Examples for Formulae (I), (II), and (III)
[7] = Homo sapiens, HCT-116, Examples for Formulae (I), (II), and (III)
[8] = Homo sapiens, STF/293, Examples for Formulae (IV), (V), (VI), and (VII)
[9] = Homo sapiens, HCT-116, Examples for Formulae (IV), (V), (VI), and (VII)

Row | Structure (SMILES) | IC50 [1, 5] [nM] | IC50 [2, 5] [nM] | IC50 [1, 8] [nM] | IC50 [2, 9] [nM] | also measured
1 | O=C(Nc1nc(-c2ccccn2)cs1)c1ccc(=O)n(Cc2ccccc2Cl)c1 [Example 5] | – | – | – | – | IC50 [1, 3]: 200 to 500 nM; IC50 [2, 4]: 200 to 500 nM
2 | CN(c1nc(-c2ccc(F)cc2)c(C(=O)Nc2nc(-c3ccccn3)cs2)o1)S(=O)(=O)c1ccc(C(F)(F)F)cc1 [Example 61] | < 200 | < 200 | – | – | –
3 | C#Cc1ccc(-c2nc(C)oc2C(=O)Nc2nc(-c3ccccn3)cs2)cc1 [Example 68] | < 200 | < 200 | – | – | –
4 | Cn1cc(C(=O)Nc2nc(-c3ccccn3)cs2)c(-c2ccccc2Cl)n1 [Example 2] | – | – | – | – | IC50 [1, 6]: 1000 to 10000 nM; IC50 [2, 7]: 500 to 1000 nM
5 | Cc1nn(Cc2ccc(Cl)cc2Cl)c(Cl)c1C(=O)Nc1nc(-c2ccccn2)cs1 [Example 13] | – | – | – | – | IC50 [1, 6]: 500 to 1000 nM; IC50 [2, 7]: 500 to 1000 nM
6 | Cc1nc(-c2ccc(F)cc2)c(C(=O)Nc2nc(-c3ccccn3)cs2)o1 [Example 8] | – | – | < 200 | < 200 | –
7 | O=C(Nc1nc(-c2ccccn2)cs1)c1ccn(Cc2ccc(F)cc2)c(=O)c1 [Example 9] | – | – | – | – | IC50 [1, 3]: 1000 to 10000 nM; IC50 [2, 4]: 1000 to 10000 nM
8 | CN(c1nc(C(F)(F)F)c(C(=O)Nc2nc(-c3ccccn3)cs2)o1)S(=O)(=O)c1ccc(C(F)(F)F)cc1 [Example 55] | – | – | 200 to 500 | 200 to 500 | –
9 | Cc1cc(C(=O)Nc2nc(-c3ncccc3C)co2)n(-c2ccc(S(C)(=O)=O)cc2)n1 [Example 19] | – | – | – | – | IC50 [1, 3]: < 200 nM; IC50 [2, 4]: 200 to 500 nM
10 | CS(=O)(=O)c1ccccc1-c1ncoc1C(=O)Nc1nc(-c2ccccn2)cs1 [Example 44] | 1000 to 10000 | 500 to 1000 | – | – | –
11 | COCc1nc(-c2ccc(F)cc2)c(C(=O)Nc2nc(-c3ccccn3)cs2)o1 [Example 69] | – | – | 200 to 500 | 200 to 500 | –
12 | Cc1onc(-c2cccs2)c1C(=O)Nc1nc(-c2ccccn2)cs1 [Example 1] | – | – | < 200 | 200 to 500 | –
13 | Cc1onc(-c2ccc(C(F)(F)F)c(F)c2)c1C(=O)Nc1nc(-c2ccccn2)cs1 [Example 62] | 200 to 500 | < 200 | – | – | –
